Data from patent US20040235070A1, “Immune reactivity to expressed activated oncogenes for diagnosis and treatment of malignancy” (Washington Research Foundation, priority 1990, published 2004).

Tests used:
[1] = system: spleen cells from mice immunized with p54-66[L61]; assay: Proliferative response of spleen cells from mice immunized with p54-66[L61] ras peptide; type: cell-based, C3H/HeN mice; conditions: lymphocytes from mice immunized with p54-66[L61]; FIG. 4
Procedure: This peptide is denoted as p54-66[L61] or [L61]. C3H/HeN mice were immunized twice subcutaneously at two week intervals with Ribi adjuvant alone or adjuvant emulsified with p54-66[L61] ras peptide (100 μg). Two weeks after the final immunization, spleen cells from mice injected with adjuvant alone (open bar) or adjuvant plus p54-66[L61] ras peptide (black bar) were harvested and tested in vitro for proliferative response to the indicated p54-66 ras peptide (100 μg/ml). The peptide containing the substitution of lysine (K) for glutamine at position 61 is denoted as [K61]. The data represent the mean of triplicate determinations of the c.p.m. of incorporated ^3HTdR±S.D.

[2] = system: bcr3-abl2 peptide-specific CD4^+ T cell clones; assay: Proliferative assay of bcr3-abl2 peptide-specific CD4+ T cell clones ([3H] thymidine incorporation); type: cell-based, BALB/c mice; conditions: for [^3H] Thymidine Incorporation (c.p.m.) after Stimulation with bcr3-abl2 peptide (5 μg/ml): peptides of varying lengths 5 μg/ml, 96 hour culture, Table 4; for [^3H] Thymidine Incorporation (c.p.m.): peptide 5 μg/ml, Table 2; for [^3H] Thymidine Incorporation (c.p.m.) / [^3H] Thymidine Incorporation (c.p.m.) after Stimulation with bcr-abl 12 peptide/proteins (μg/ml): 96-hour culture; for [^3H] Thymidine Incorporation (c.p.m.) after Stimulation with bcr-abl 12 peptide/proteins (μg/ml): Table 5
Procedure: Mice (female BALB/c and C57BL/6 (B6), 6 to 8 weeks old; Jackson Laboratories, Bar Harbor, Me.) were inoculated twice at 2-week intervals by subcutaneous injection with Complete Freund's Adjuvant (Sigma Chemical Co., St. Louis, Mo.) alone or emulsified with bcr3-abl2 peptide (100 μg). Ten days after the final immunization, single cell suspensions of draining lymph nodes and spleens were prepared in medium consisting of 1:1 mixture of RPMI 1640 (Gibco Laboratories, Inc., Grand Island, N.Y.) and EHAA (Biofluids, Inc., Rockville, Md.) with 2.5×10^−5 M 2-ME, 200 U/ml penicillin, 200 U/ml streptomycin, 10 mM L-glutamine and 10% fetal calf serum. For proliferative assays, lymphocytes were cultured in 96-well plates at 2×10^5 cells per well with 4×10^5 irradiated syngeneic spleen cells (3,000 rad) and designated (total volume of 200 μl per well). Plates were incubated in a humidified atmosphere under 5% CO2 tension at 37° C. for 72 hours, and then pulsed for 18 hours with […] of [^3H]-thumidine per well. Proliferative responses of cloned T cells utilized 2×10^4 cells per well with 5×10^5 irradiated syngeneic spleen cells (3,000 rad) and designated peptide.
Lymphocytes from the draining lymph nodes of mice immunized with bcr3-abl2 peptide were cultured in 24-well culture plates at 4×10^6 cells per well with 2×10^6 irradiated syngeneic spleen cells and bcr3-abl2 peptide at 25 μg/ml (total volume 2 ml). The plates were cultured in a humidified atmosphere under 5% CO2 tension at 37° C. for 5 days then split 1:2. After 10 days, lymphocytes were restimulated at 1×10^6 lymphocytes per well in 24-well culture plates with 5×10^6 irradiated syngeneic spleen cells and peptide (25 μg/ml). Two days after the second in vitro stimulation, T cells were-plated at 0.5 cells per well in 96-well flat-bottom plates with 1×10^6 irradiated syngeneic spleen cells and rIL-2 (50 U/ml). Derived T cell clones were maintained by periodic stimulation with peptide (1 μg/ml) plus irradiated syngeneic spleen cells followed by expansion with rIL-2 (10 U/ml) every 2 weeks. T cell clones were stained with FITC-conjugated anti-Thy 1.2 (1%), or FITC-conjugated anti-Lyt2 (2%), or PE-conjugated anti-L3T4 (3%) mAbs (Becton Dickinson Immunocytochemistry Systems, Mountain View, Calif.) at 4° C. for 45 minutes.

[3] = system: lymphocytes from mice immunized with the Arg-12 peptide; assay: Proliferation assay of lymph node lymphocytes from mice immunized with ras Arg-12 peptide; type: cell-based; conditions: lymphocytes from C57BL/6 mice immunized with a single dose of Arg-12 peptide; FIG. 1
Procedure: FIG. 1 graphically illustrates that specific T cell responses to point-mutated ras peptide can be generated by in vivo priming on day 0 with 50 μg of a peptide of 12 amino acid length constructed identically to murine ras-p21 (amino acids 5-16) but with the substitution of arginine for the glycine normally found at position 12 (i.e., position 12 of ras-p21 but position 8 of the peptide). This peptide is denoted as ras p5-16[R12] or as ras-R12. Mice were immunized with ras-R12 peptide plus adjuvant or with adjuvant alone. […]
Lymphocytes obtained from immunized mice were suspended in culture medium (consisting of RPMI 1640 Gibco supplemented with 10% fetal calf serum, 2 mM L-glutamine, 100 U/ml streptomycin, 100 U/ml penicillin and 2.5×10^−5 M 2-mercaptoethanol) and were plated in 96-well flat bottom microtiter plates (Costar Co., Cambridge, Mass.) at 1×10^5 cells per well. […] Lymphocytes from individual wells were collected onto filter paper disks using a multi-channel harvester then transferred to scintillation fluid in individual counting tubes. β emission was measured using a Beckmann liquid scintillation spectrophotometer. […]

“Lys-61: p54-66 ras peptide with lysine for glutamine at position 61 (DILDTAGKEEYSA; UniProt P01112 54-66, looked up, fragment Q61K)” was tested, and the proliferation in vitro [1] was “not”.

For “G F K Q S S K A L Q R P V A S D (GFKQSSKALQRPVASD) [bcr3-abl2 16-mer]”, the “[^3H] Thymidine Incorporation (c.p.m.) after Stimulation with bcr3-abl2 peptide (5 μg/ml)” value ([2]; T cell clone 1D2) was 108,309 c.p.m and the “[^3H] Thymidine Incorporation (c.p.m.) after Stimulation with bcr3-abl2 peptide (5 μg/ml)” value ([2]; T cell clone 2E10) was 139,083 c.p.m.

“Leu-61 peptide: 13 residues 54-66 of ras p21 with leucine for glutamine at position 61 (DILDTAGLEEYSA; UniProt P01112 54-66, looked up, fragment Q61L)” was tested, and the proliferation in vitro [1] was “proliferate in vitro”.

With “H S A T G F K Q S S K A L Q R P V A (HSATGFKQSSKALQRPVA) [bcr3-abl2 18-mer]” the “[^3H] Thymidine Incorporation (c.p.m.) after Stimulation with bcr3-abl2 peptide (5 μg/ml)” value ([2]; T cell clone 1D2) was 150,309 c.p.m and the “[^3H] Thymidine Incorporation (c.p.m.) after Stimulation with bcr3-abl2 peptide (5 μg/ml)” value ([2]; T cell clone 2E10) was 224,674 c.p.m.

For “I V H S A T G F K Q S S (IVHSATGFKQSS) [bcr3, reference compound]”, the “[^3H] Thymidine Incorporation (c.p.m.)” value ([2]; T cell clone 1D2) was 294 c.p.m, the “[^3H] Thymidine Incorporation (c.p.m.)” value ([2]; T cell clone 2B12) was 461 c.p.m and the “[^3H] Thymidine Incorporation (c.p.m.)” value ([2]; T cell clone 2D4) was 133 c.p.m. For the same substance, the “[^3H] Thymidine Incorporation (c.p.m.)” value ([2]; T cell clone 2E3) was 193 c.p.m, the “[^3H] Thymidine Incorporation (c.p.m.)” value ([2]; T cell clone 2E10) was 667 c.p.m and the “[^3H] Thymidine Incorporation (c.p.m.)” value ([2]; T cell clone 3B7) was 462 c.p.m. For the same substance, the “[^3H] Thymidine Incorporation (c.p.m.)” value ([2]; T cell clone 3E11) was 305 c.p.m, the “[^3H] Thymidine Incorporation (c.p.m.)” value ([2]; T cell clone 3G2) was 461 c.p.m and the “[^3H] Thymidine Incorporation (c.p.m.)” value ([2]; T cell clone 3G3) was 190 c.p.m. For the same substance, the “response of bcr3-abl2 peptide-specific T cell clones (in words)” value ([2]; proliferative assay with irradiated syngeneic APC) was “failed to respond”.

In the case of “L T I N K E E A L Q R P (LTINKEEALQRP) [bcr2-abl2, 12 mer of p210 joining region, bcr exon 2 fused to c-abl exon 2, reference compound]”, the “[^3H] Thymidine Incorporation (c.p.m.)” value ([2]; T cell clone 1D2) is reported as 274 c.p.m, the “[^3H] Thymidine Incorporation (c.p.m.)” value ([2]; T cell clone 2B12) is reported as 341 c.p.m and the “[^3H] Thymidine Incorporation (c.p.m.)” value ([2]; T cell clone 2D4) is reported as 143 c.p.m. The “[^3H] Thymidine Incorporation (c.p.m.)” value ([2]; T cell clone 2E3) was 402 c.p.m, the “[^3H] Thymidine Incorporation (c.p.m.)” value ([2]; T cell clone 2E10) was 287 c.p.m and the “[^3H] Thymidine Incorporation (c.p.m.)” value ([2]; T cell clone 3B7) was 349 c.p.m. The “[^3H] Thymidine Incorporation (c.p.m.)” value ([2]; T cell clone 3E11) was 299 c.p.m, the “[^3H] Thymidine Incorporation (c.p.m.)” value ([2]; T cell clone 3G2) was 478 c.p.m and the “[^3H] Thymidine Incorporation (c.p.m.)” value ([2]; T cell clone 3G3) was 217 c.p.m.

With “KLVVVGARGVGK [Arg-12 peptide, residues 5-16 of ras p21 with arginine for glycine at position 12]” the “proliferative response in vitro” value [3] was “proliferate specifically”.

With “IVHSATGFKQSSKALQRPVASD (IVHSATGFKQSSKALQRPVASD) [bcr3-abl2 22-mer]” the “[^3H] Thymidine Incorporation (c.p.m.) after Stimulation with bcr3-abl2 peptide (5 μg/ml)” value ([2]; T cell clone 1D2) was 21,208 c.p.m and the “[^3H] Thymidine Incorporation (c.p.m.) after Stimulation with bcr3-abl2 peptide (5 μg/ml)” value ([2]; T cell clone 2E10) was 29,509 c.p.m.

In the case of “Gln-61: p54-66 ras peptide with the normal glutamine at position 61 (DILDTAGQEEYSA; UniProt P01112 54-66, looked up, fragment)”, the proliferation in vitro [1] is reported as “not”.

For “A F H G D A Q A L Q R P V A (AFHGDAQALQRPVA) [BCRI-abl2, 14 mer of p185 bcr-abl joining region, reference compound]”, the “[^3H] Thymidine Incorporation (c.p.m.)” value ([2]; T cell clone 1D2) was 315 c.p.m, the “[^3H] Thymidine Incorporation (c.p.m.)” value ([2]; T cell clone 2B12) was 385 c.p.m and the “[^3H] Thymidine Incorporation (c.p.m.)” value ([2]; T cell clone 2D4) was 147 c.p.m. For the same substance, the “[^3H] Thymidine Incorporation (c.p.m.)” value ([2]; T cell clone 2E3) was 461 c.p.m, the “[^3H] Thymidine Incorporation (c.p.m.)” value ([2]; T cell clone 2E10) was 137 c.p.m and the “[^3H] Thymidine Incorporation (c.p.m.)” value ([2]; T cell clone 3B7) was 277 c.p.m. The “[^3H] Thymidine Incorporation (c.p.m.)” value ([2]; T cell clone 3E11) was 398 c.p.m, the “[^3H] Thymidine Incorporation (c.p.m.)” value ([2]; T cell clone 3G2) was 583 c.p.m and the “[^3H] Thymidine Incorporation (c.p.m.)” value ([2]; T cell clone 3G3) was 351 c.p.m.

For “G F K Q S S K A L Q R P V A (GFKQSSKALQRPVA) [bcr3-abl2 14-mer peptide]”, the “[^3H] Thymidine Incorporation (c.p.m.) after Stimulation with bcr3-abl2 peptide (5 μg/ml)” value ([2]; T cell clone 1D2) was 238,297 c.p.m, the “[^3H] Thymidine Incorporation (c.p.m.) after Stimulation with bcr-abl 12 peptide/proteins (μg/ml)” value ([2]; T cell clone 2E10, peptide/protein 0.04 μg/ml) was 6,303 c.p.m and the “[^3H] Thymidine Incorporation (c.p.m.) after Stimulation with bcr-abl 12 peptide/proteins (μg/ml)” value ([2]; T cell clone 2E10, peptide/protein 0.2 μg/ml) was 54,896 c.p.m. The “[^3H] Thymidine Incorporation (c.p.m.) after Stimulation with bcr-abl 12 peptide/proteins (μg/ml)” value ([2]; T cell clone 2E10, peptide/protein 1 μg/ml) was 92,970 c.p.m and the “[^3H] Thymidine Incorporation (c.p.m.) after Stimulation with bcr3-abl2 peptide (5 μg/ml)” value ([2]; T cell clone 2E10) was 170,085 c.p.m.
